Measured values as given in publication PMC7306898, “Concentration-Dependent Activity of Hydromethylthionine on Clinical Decline and Brain Atrophy in a Randomized Controlled Trial in Behavioral Variant Frontotemporal Dementia” (Journal of Alzheimer's Disease, 2020).

Experiments:
red blood cells = settings: cited from earlier work
CYP2B6 = system: CYP2B6; parameters: method as in Investigator's Brochure; settings: ref Investigator's Brochure; cited from earlier work
[1] = system: P-glycoprotein (P-gp) transporter; parameters: method as in Investigator's Brochure; settings: ref Investigator's Brochure; cited from earlier work
bvFTD patients = assay: Safety: treatment emergent adverse events, Safety Population; settings: for deaths: none judged related to treatment
Source text: Patients were monitored throughout the study for adverse events, including use of clinical laboratory tests (including measurement of methaemoglobin by pulse CO-oximetry), physical and neurological examinations, and 12-lead electrocardiograms (ECG) at all clinic visits (screening, baseline, and weeks 2, 16, 32, 52, and 56). The Unified Parkinson’s Disease Rating Scale Part III (UPDRS) [58] was included as a motor safety outcome measure requested by a regulatory agency, as was the Columbia-Suicide Severity Rating Scale (C-SSRS) [59], which were assessed at all visits. Patients were also systematically monitored for potential serotonin syndrome using a rating scale derived from four published diagnostic criteria [60], because of a theoretical potential for serotonin syndrome [61]. By protocol, amyloid related imaging abnormalities (ARIA), serotonin toxicity, and suicidality were to be reported as serious adverse events for expedited reporting.

[2] = 8 mg/day (n = 110), Safety Population
[3] = 200 mg/day (n = 108), Safety Population

Compound: CN(C)c1ccc2c(c1)Sc1cc(N(C)C)ccc1N2 [hydromethylthionine, leuco-methylthioninium bis(hydromethanesulphonate)]
- efficiency of uptake into red blood cells relative to MTC (red blood cells): 20 fold
- induction of CYP2B6 (CYP2B6): w eak in ducer
- effect of coadministration on digoxin (P-gp substrate) [1]: decreased concentrations
- induction of P-glycoprotein (P-gp) transporter [1]: w eak in ducer
- patients with TEAEs judged by the Investigator to be related to study drug (bvFTD patients; 8 mg/day): 30%
- patients with a TEAE resulting in a dose reduction, interruption, or withdrawal of study drug (bvFTD patients; 8 mg/day): 15 [14%]
- patients with at least one severe TEAE (bvFTD patients; 8 mg/day): 13 (12%)
- subjects with myoclonus reported as an AE (bvFTD patients; 8 mg/day): 2
- withdrawal rate over 12 months (bvFTD patients; 8 mg/day): 15%
- Number (%) of Patients Reporting at Least One Adverse Event (TEAE) (bvFTD patients; [2]): 88 (80%)
- Number (%) of patients with TEAE: Agitation (bvFTD patients; [2]): 9 (8.2%)
- Number (%) of patients with TEAE: Blood folate decreased (bvFTD patients; [2]): 6 (5.5%)
- Number (%) of patients with TEAE: Cough (bvFTD patients; [2]): 7 (6.4%)
- Number (%) of patients with TEAE: Diarrhea (bvFTD patients; [2]): 9 (8.2%)
- Number (%) of patients with TEAE: Dysuria (bvFTD patients; [2]): 0
- Number (%) of patients with TEAE: Fall (bvFTD patients; [2]): 10 (9.1%)
- Number (%) of patients with TEAE: Folate deficiency (bvFTD patients; [2]): 2 (1.8%)
- Number (%) of patients with TEAE: Gastrointestinal disorders (bvFTD patients; [2]): 28 (25.5%)
- Number (%) of patients with TEAE: Headache (bvFTD patients; [2]): 8 (7.3%)
- Number (%) of patients with TEAE: Infections and infestations (bvFTD patients; [2]): 38 (34.5%)
- Number (%) of patients with TEAE: Injury, poisoning and procedural complications (bvFTD patients; [2]): 18 (16.4%)
- Number (%) of patients with TEAE: Insomnia (bvFTD patients; [2]): 3 (2.7%)
- Number (%) of patients with TEAE: Investigations (bvFTD patients; [2]): 17 (15.5%)
- Number (%) of patients with TEAE: Metabolism and nutrition disorders (bvFTD patients; [2]): 12 (10.9%)
- Number (%) of patients with TEAE: Nasopharyngitis (bvFTD patients; [2]): 8 (7.3%)
- Number (%) of patients with TEAE: Pollakiuria (bvFTD patients; [2]): 3 (2.7%)
- Number (%) of patients with TEAE: Psychiatric disorders (bvFTD patients; [2]): 29 (26.4%)
- Number (%) of patients with TEAE: Renal and urinary disorders (bvFTD patients; [2]): 25 (22.7%)
- Number (%) of patients with TEAE: Respiratory, thoracic and mediastinal disorders (bvFTD patients; [2]): 12 (10.9%)
- Number (%) of patients with TEAE: Urinary incontinence (bvFTD patients; [2]): 13 (11.8%)
- Number (%) of patients with TEAE: Urinary tract infection (bvFTD patients; [2]): 13 (11.8%)
- Number (%) of patients with TEAE: Vomiting (bvFTD patients; [2]): 5 (4.5%)
- Number (%) of patients with TEAE: White blood cells urine positive (bvFTD patients; [2]): 1 (0.9%)
- Number (%) of Patients Reporting at Least One Adverse Event (TEAE) (bvFTD patients; 8 mg/day (n = 110), Safety Population, listed as Hydromethylthionine): 88 (80.0%)
- frequency of renal and urinary disorders (bvFTD patients; 8 mg/day, above-threshold plasma levels): 26%
- frequency of renal and urinary disorders (bvFTD patients; 8 mg/day, below-threshold plasma levels): 18%
- deaths (bvFTD patients; 8 mg/day): 1
- patients with TEAEs judged by the Investigator to be related to study drug (bvFTD patients; 200 mg/day): 56%
- patients with a TEAE resulting in a dose reduction, interruption, or withdrawal of study drug (bvFTD patients; 200 mg/day): 35 [32%]
- patients with at least one severe TEAE (bvFTD patients; 200 mg/day): 17 (16%)
- subjects with myoclonus reported as an AE (bvFTD patients; 200 mg/day): 1
- withdrawal rate over 12 months (bvFTD patients; 200 mg/day): 38%
- Number (%) of Patients Reporting at Least One Adverse Event (TEAE) (bvFTD patients; [3]): 103 (95.4%)
- Number (%) of patients with TEAE: Agitation (bvFTD patients; [3]): 9 (8.3%)
- Number (%) of patients with TEAE: Blood folate decreased (bvFTD patients; [3]): 9 (8.3%)
- Number (%) of patients with TEAE: Cough (bvFTD patients; [3]): 2 (1.9%)
- Number (%) of patients with TEAE: Diarrhea (bvFTD patients; [3]): 24 (22.2%)
- Number (%) of patients with TEAE: Dysuria (bvFTD patients; [3]): 6 (5.6%)
- Number (%) of patients with TEAE: Fall (bvFTD patients; [3]): 13 (12.0%)
- Number (%) of patients with TEAE: Folate deficiency (bvFTD patients; [3]): 6 (5.6%)
- Number (%) of patients with TEAE: Gastrointestinal disorders (bvFTD patients; [3]): 42 (38.9%)
- Number (%) of patients with TEAE: Headache (bvFTD patients; [3]): 5 (4.6%)
- Number (%) of patients with TEAE: Infections and infestations (bvFTD patients; [3]): 34 (31.5%)
- Number (%) of patients with TEAE: Injury, poisoning and procedural complications (bvFTD patients; [3]): 16 (14.8%)
- Number (%) of patients with TEAE: Insomnia (bvFTD patients; [3]): 7 (6.5%)
- Number (%) of patients with TEAE: Investigations (bvFTD patients; [3]): 34 (31.5%)
- Number (%) of patients with TEAE: Metabolism and nutrition disorders (bvFTD patients; [3]): 14 (13.0%)
- Number (%) of patients with TEAE: Nasopharyngitis (bvFTD patients; [3]): 7 (6.5%)
- Number (%) of patients with TEAE: Nervous system disorders (bvFTD patients; [3]): 27 (25.0%)
- Number (%) of patients with TEAE: Pollakiuria (bvFTD patients; [3]): 10 (9.3%)
- Number (%) of patients with TEAE: Psychiatric disorders (bvFTD patients; [3]): 31 (28.7%)
- Number (%) of patients with TEAE: Renal and urinary disorders (bvFTD patients; [3]): 28 (25.9%)
- Number (%) of patients with TEAE: Respiratory, thoracic and mediastinal disorders (bvFTD patients; [3]): 8 (7.4%)
- Number (%) of patients with TEAE: Urinary incontinence (bvFTD patients; [3]): 9 (8.3%)
- Number (%) of patients with TEAE: Urinary tract infection (bvFTD patients; [3]): 14 (13.0%)
- Number (%) of patients with TEAE: Vomiting (bvFTD patients; [3]): 9 (8.3%)
- Number (%) of patients with TEAE: White blood cells urine positive (bvFTD patients; [3]): 6 (5.6%)
- deaths (bvFTD patients; 200 mg/day): 3
- serotonin syndrome reported as an AE (bvFTD patients; both doses, 20-item structured examination): No subject had serotonin syndrome reported as an AE
